For data set [1] the following is noted: imidazole reagent, literature refs 58-60, cited from earlier work.
Data set [2] in a line: Solubility of TBIs in common solvents. It counts as physicochemical.
The mark [3] stands for this setting: organic solvent or mixture, solvent Ethanol, read-out: Solubility in Ethanol.
Setting [4] is: solvent DI Water, read-out: Solubility in DI Water.

Like-named read-outs stand apart in the source and are kept apart here. Bounds are passed on as bounds.

As a reminder, the pKa is the pH at which an ionisable group is half protonated. In general, solubility refers to how much of the substance goes into solution per volume.

With `Cc1ncc[nH]1` [2a, 2-Methyl imidazole], the pKa in data set [1] was 7.85-8.10; in data set [1] (listed as 2-methylimidazole) it was 8.1.

With `Cc1nc(C)n(C(=O)c2ccc(C(=O)n3c(C)nc(C)c3C)cc2)c1C` [6b], the solubility in data set [2] (setting [3]) and in data set [2] (setting [4]) was greater than 1000 µg/mL each time. As to `Cc1c[nH]cn1` [4a, 4-Methyl imidazole], the pKa in data set [1] is given as 7.69-7.80. In the case of `CCc1nc(C)c[nH]1` [7a, 2-Ethyl-4-methyl imidazole], in data set [1], the pKa was 8.68. `CCc1ncc[nH]1` [3a, 2-Ethyl imidazole]: the pKa in data set [1] was 7.99-8. `c1ccc(-c2ncc[nH]2)cc1` [8a, 2-Phenyl imidazole]: the pKa in data set [1] is 6.44. Take `CCc1nc(C)cn1C(=O)c1ccc(C(=O)n2cc(C)nc2CC)cc1` [7b]: the solubility in data set [2] (setting [3]) was less than 1000 µg/mL; in data set [2] (setting [4]), greater than 1000 µg/mL. Take `O=C(c1ccc(C(=O)n2ccnc2-c2ccccc2)cc1)n1ccnc1-c1ccccc1` [8b]: the “Solubility in typical aromatic organic solvents” value in data set [2] (e.g., toluene, xylene) is given as “moderately soluble”. Moreover, the solubility in data set [2] (setting [3]) and in data set [2] (setting [4]) was less than 1000 µg/mL throughout. Consider `O=C(c1ccc(C(=O)n2ccnc2)cc1)n1ccnc1` [1b, 1,1′-(1,4-Phenylene)bis[1-(1H-imidazol-1-yl)methanone]], for which the “Solubility on contact with H2O” value in data set [2] (DI H2O) was “solubilize”. In addition, the solubility in data set [2] (setting [3]) and in data set [2] (setting [4]) was greater than 1000 µg/mL throughout.

Turning to `Cc1cn(C(=O)c2ccc(C(=O)n3cnc(C)c3)cc2)cn1` [4b], the solubility in data set [2] (setting [3]) and in data set [2] (setting [4]) was greater than 1000 µg/mL throughout. On to `Cc1nc(C)c(C)[nH]1` [6a, 2,4,5-Trimethyl imidazole], for which the pKa in data set [1] is on record as 8.92. Consider `CC(C)c1nccn1C(=O)c1ccc(C(=O)n2ccnc2C(C)C)cc1` [5b], for which the solubility in data set [2] (setting [3]) and in data set [2] (setting [4]) was less than 1000 µg/mL throughout. On to `Cc1nccn1C(=O)c1ccc(C(=O)n2ccnc2C)cc1` [2b], for which the solubility in data set [2] (setting [3]) and in data set [2] (setting [4]) was greater than 1000 µg/mL throughout. Take `CCc1nccn1C(=O)c1ccc(C(=O)n2ccnc2CC)cc1` [3b]: the solubility in data set [2] (setting [3]) and in data set [2] (setting [4]) was greater than 1000 µg/mL in each case. On to Imidazole [1a], for which, in data set [1], the pKa is listed as roughly 7. Turning to `CC(C)c1ncc[nH]1` [5a, 2-Isopropyl imidazole], the pKa in data set [1] is 7.97.

The values above are taken from US20250075056A1, “IMIDAZOLYSIS OF POLYESTERS AND POLYURETHANES” (The Board of Trustees of The University of Alabama, priority 2023, published 2025).
